# In patent publication US20230085307A1, “PYRIDAZINONE COMPOUND AND HERBICIDE” (NISSAN CHEMICAL CORPORATION, priority 2019, published 2023):
# Columns and labels:
# barnyard grass [1] = assay: Test Example 3: herbicidal effect by foliage application, Wagner pot (Table 18, symbol H); format: in vivo, barnyard grass (Echinochloa crus-galli); conditions: 320 g/ha
# In short: (§1)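 Plants were sown in alluvial soil held under 0.1–0.5 cm standing water and grown 14 days in a greenhouse at 25–30 °C. An emulsifiable formulation, water-diluted to the set dose, was then sprayed onto the foliage, and effects were scored three weeks later using previously defined criteria.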
# Chinese sprangletop = assay: Test Example 3: herbicidal effect by foliage application, Wagner pot (Table 18, symbol D); format: in vivo, chinese sprangletop (Leptochloa chinensis); conditions: 320 g/ha
# In short: as §1
# rice flat sedge = assay: Test Example 3: herbicidal effect by foliage application, Wagner pot (Table 18, symbol E); format: in vivo, rice flat sedge (Cyperus iria); conditions: 320 g/ha
# In short: as §1
# southern crabgrass [2] = assay: Test Example 4: herbicidal effect by soil treatment (Table 19, symbol F); format: in vivo, southern crabgrass (Digitaria ciliaris); conditions: AAH 320 g/ha
# In short: (§2)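 Applied as a water-diluted emulsion, the compound was sprayed onto soil covering newly sown seeds. Evaluation came three weeks after application, in a greenhouse held at 25° C. to 30° C.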
# green foxtail [3] = assay: Test Example 4: herbicidal effect by soil treatment (Table 19, symbol G); format: in vivo, green foxtail (Setaria viridis); conditions: AAH 320 g/ha
# In short: as §2
# barnyard grass [4] = assay: Test Example 4: herbicidal effect by soil treatment (Table 19, symbol H); format: in vivo, barnyard grass (Echinochloa crus-galli); conditions: AAH 320 g/ha
# In short: as §2
# wild oat [5] = assay: Test Example 4: herbicidal effect by soil treatment (Table 19, symbol I); format: in vivo, wild oat (Avena fatua); conditions: AAH 320 g/ha
# In short: as §2
# blackgrass [6] = assay: Test Example 4: herbicidal effect by soil treatment (Table 19, symbol J); format: in vivo, blackgrass (Alopecurus myosuroides); conditions: AAH 320 g/ha
# In short: as §2
# Italian ryegrass [7] = assay: Test Example 4: herbicidal effect by soil treatment (Table 19, symbol K); format: in vivo, Italian ryegrass (Lolium multiflorum); conditions: AAH 320 g/ha
# In short: as §2
# windgrass [8] = assay: Test Example 4: herbicidal effect by soil treatment (Table 19, symbol L); format: in vivo, windgrass (Apera spica-venti); conditions: AAH 320 g/ha
# In short: as §2
# velvetleaf [9] = assay: Test Example 4: herbicidal effect by soil treatment (Table 19, symbol M); format: in vivo, velvetleaf (Abutilon theophrasti); conditions: AAH 320 g/ha
# In short: as §2
# redroot pigweed [10] = assay: Test Example 4: herbicidal effect by soil treatment (Table 19, symbol N); format: in vivo, redroot pigweed (Amaranthus retroflexus); conditions: AAH 320 g/ha
# In short: as §2
# lambsquarters [11] = assay: Test Example 4: herbicidal effect by soil treatment (Table 19, symbol O); format: in vivo, lambsquarters (Chenopodium album); conditions: AAH 320 g/ha
# In short: as §2
# chickweed [12] = assay: Test Example 4: herbicidal effect by soil treatment (Table 19, symbol P); format: in vivo, common chickweed (Stellaria media); conditions: AAH 320 g/ha
# In short: as §2
# persian speedwell [13] = assay: Test Example 4: herbicidal effect by soil treatment (Table 19, symbol R); format: in vivo, Persian speedwell (Veronica persica); conditions: AAH 320 g/ha
# In short: as §2
# southern crabgrass [14] = assay: Test Example 5: herbicidal effect by foliage application, plastic box (Table 20, symbol F); format: in vivo, southern crabgrass (Digitaria ciliaris); conditions: foliage application, AAH 320 g/ha, three weeks after application
# In short: (§3)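 Sow seeds spot-wise in sterilized diluvial soil; cover with ~1.5 cm soil. Grow 14 days in greenhouse, 25° C. to 30° C. Spray foliage with emulsion diluted to predetermined amount. Rate effect after 3 weeks.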
# green foxtail [15] = assay: Test Example 5: herbicidal effect by foliage application, plastic box (Table 20, symbol G); format: in vivo, green foxtail (Setaria viridis); conditions: foliage application, AAH 320 g/ha, three weeks after application
# In short: as §3
# barnyard grass [16] = assay: Test Example 5: herbicidal effect by foliage application, plastic box (Table 20, symbol H); format: in vivo, barnyard grass (Echinochloa crus-galli); conditions: foliage application, AAH 320 g/ha, three weeks after application
# In short: as §3
# wild oat [17] = assay: Test Example 5: herbicidal effect by foliage application, plastic box (Table 20, symbol I); format: in vivo, wild oat (Avena fatua); conditions: foliage application, AAH 320 g/ha, three weeks after application
# In short: as §3
# blackgrass [18] = assay: Test Example 5: herbicidal effect by foliage application, plastic box (Table 20, symbol J); format: in vivo, blackgrass (Alopecurus myosuroides); conditions: foliage application, AAH 320 g/ha, three weeks after application
# In short: as §3
# Italian ryegrass [19] = assay: Test Example 5: herbicidal effect by foliage application, plastic box (Table 20, symbol K); format: in vivo, Italian ryegrass (Lolium multiflorum); conditions: foliage application, AAH 320 g/ha, three weeks after application
# In short: as §3
# windgrass [20] = assay: Test Example 5: herbicidal effect by foliage application, plastic box (Table 20, symbol L); format: in vivo, windgrass (Apera spica-venti); conditions: foliage application, AAH 320 g/ha, three weeks after application
# In short: as §3
# velvetleaf [21] = assay: Test Example 5: herbicidal effect by foliage application, plastic box (Table 20, symbol M); format: in vivo, velvetleaf (Abutilon theophrasti); conditions: foliage application, AAH 320 g/ha, three weeks after application
# In short: as §3
# redroot pigweed [22] = assay: Test Example 5: herbicidal effect by foliage application, plastic box (Table 20, symbol N); format: in vivo, redroot pigweed (Amaranthus retroflexus); conditions: foliage application, AAH 320 g/ha, three weeks after application
# In short: as §3
# lambsquarters [23] = assay: Test Example 5: herbicidal effect by foliage application, plastic box (Table 20, symbol O); format: in vivo, lambsquarters (Chenopodium album); conditions: foliage application, AAH 320 g/ha, three weeks after application
# In short: as §3
# chickweed [24] = assay: Test Example 5: herbicidal effect by foliage application, plastic box (Table 20, symbol P); format: in vivo, common chickweed (Stellaria media); conditions: foliage application, AAH 320 g/ha, three weeks after application
# In short: as §3
# persian speedwell [25] = assay: Test Example 5: herbicidal effect by foliage application, plastic box (Table 20, symbol R); format: in vivo, Persian speedwell (Veronica persica); conditions: foliage application, AAH 320 g/ha, three weeks after application
# In short: as §3
smiles,measurement,setting,value
COc1ccc(-c2sc3ccccc3c2-c2c(O)c(OC)nn(C)c2=O)c(OC)c1 [1-180],"herbicidal effect on H (barnyard grass), rating 0-5",barnyard grass [1],1 (Herbicidal rate of 5% or more and less than 20%)
same,"herbicidal effect on D (Chinese sprangletop), rating 0-5",Chinese sprangletop,0 (Herbicidal rate of 5% or less (almost no effect))
same,"herbicidal effect on E (rice flat sedge), rating 0-5",rice flat sedge,4 (Herbicidal rate of 70% or more and less than 90%)
same,"F: southern crabgrass, herbicidal effect rating",southern crabgrass [2],0 (Herbicidal rate of 5% or less (almost no effect))
same,"G: green foxtail, herbicidal effect rating",green foxtail [3],0 (Herbicidal rate of 5% or less (almost no effect))
same,"H: barnyard grass, herbicidal effect rating",barnyard grass [4],0 (Herbicidal rate of 5% or less (almost no effect))
same,"I: wild oat, herbicidal effect rating",wild oat [5],2 (Herbicidal rate of 20% or more and less than 40%)
same,"J: blackgrass, herbicidal effect rating",blackgrass [6],0 (Herbicidal rate of 5% or less (almost no effect))
same,"K: Italian ryegrass, herbicidal effect rating",Italian ryegrass [7],0 (Herbicidal rate of 5% or less (almost no effect))
same,"L: windgrass, herbicidal effect rating",windgrass [8],0 (Herbicidal rate of 5% or less (almost no effect))
same,"M: velvetleaf, herbicidal effect rating",velvetleaf [9],0 (Herbicidal rate of 5% or less (almost no effect))
same,"N: redroot pigweed, herbicidal effect rating",redroot pigweed [10],0 (Herbicidal rate of 5% or less (almost no effect))
same,"O: lambsquarters, herbicidal effect rating",lambsquarters [11],0 (Herbicidal rate of 5% or less (almost no effect))
same,"P: chickweed, herbicidal effect rating",chickweed [12],4 (Herbicidal rate of 70% or more and less than 90%)
same,"R: persian speedwell, herbicidal effect rating",persian speedwell [13],4 (Herbicidal rate of 70% or more and less than 90%)
same,"F: southern crabgrass, herbicidal effect",southern crabgrass [14],3 (Herbicidal rate of 40% or more and less than 70%)
same,"G: green foxtail, herbicidal effect",green foxtail [15],5 (Herbicidal rate of 90% or more (almost completely withered))
same,"H: barnyard grass, herbicidal effect",barnyard grass [16],1 (Herbicidal rate of 5% or more and less than 20%)
same,"I: wild oat, herbicidal effect",wild oat [17],3 (Herbicidal rate of 40% or more and less than 70%)
same,"J: blackgrass, herbicidal effect",blackgrass [18],3 (Herbicidal rate of 40% or more and less than 70%)
same,"K: Italian ryegrass, herbicidal effect",Italian ryegrass [19],3 (Herbicidal rate of 40% or more and less than 70%)
same,"L: windgrass, herbicidal effect",windgrass [20],3 (Herbicidal rate of 40% or more and less than 70%)
same,"M: velvetleaf, herbicidal effect",velvetleaf [21],0 (Herbicidal rate of 5% or less (almost no effect))
same,"N: redroot pigweed, herbicidal effect",redroot pigweed [22],3 (Herbicidal rate of 40% or more and less than 70%)
same,"O: lambsquarters, herbicidal effect",lambsquarters [23],2 (Herbicidal rate of 20% or more and less than 40%)
same,"P: chickweed, herbicidal effect",chickweed [24],5 (Herbicidal rate of 90% or more (almost completely withered))
same,"R: persian speedwell, herbicidal effect",persian speedwell [25],4 (Herbicidal rate of 70% or more and less than 90%)
